Reference: patent US10765114B2, “4-amino-6-(pyridyl and 2-substitutedphenyl)-picolinates and 6-amino-2-(pyridyl and 2-substitutedphenyl)-pyrimidine-4-carboxylates and their use as herbicides” (Dow AgroSciences LLC, priority 2013, dated 2020)

tested on: Key Broadleaf Weed and Crop Species; experiment: Post-Emergent Test II (Table 5); type: in vivo; settings: Abutilon theophrasti, post-emergence, 336 h, ABUTH: velvetleaf (Abutilon theophrasti), application rate 70 (kg ai/ha; footnote: g ai/ha), read-out: Visual Growth Reduction (%) 14 Days After Application ABUTH
In short: (§1)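 Seedlings are raised 7-21 days in Metro-Mix 360 (pH 6.0-6.8) under greenhouse conditions, then sprayed at the first or second true leaf stage. Application is 187 L/ha, with serial rates down to 1/16× of the highest. Plants are subirrigated, and percent injury is rated visually after 14 days.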

SMILES	pest or weed control at 70 g/ha [%]
C=Cc1c(-c2cc(N)c(Cl)c(C(=O)OC)n2)ccc(Cl)c1F [Compound 79, methyl 4-amino-3-chloro-6-(4-chloro-3-fluoro-2-vinylphenyl)picolinate]	95 to 100

same assay, conditions: Abutilon theophrasti, post-emergence, 336 h, ABUTH: velvetleaf (Abutilon theophrasti), application rate 140 (kg ai/ha; footnote: g ai/ha), read-out: Visual Growth Reduction (%) 14 Days After Application ABUTH

SMILES	pest or weed control at 140 g/ha [%]
C=Cc1c(-c2cc(N)c(Cl)c(C(=O)OC)n2)ccc(Cl)c1F [Compound 79, methyl 4-amino-3-chloro-6-(4-chloro-3-fluoro-2-vinylphenyl)picolinate]	0 to 29

same assay, conditions: Amaranthus retroflexus, post-emergence, 336 h, AMARE: redroot pigweed (Amaranthus retroflexus), application rate 70 (kg ai/ha; footnote: g ai/ha), read-out: Visual Growth Reduction (%) 14 Days After Application AMARE

SMILES	pest or weed control at 70 g/ha [%]
C=Cc1c(-c2cc(N)c(Cl)c(C(=O)OC)n2)ccc(Cl)c1F [Compound 79, methyl 4-amino-3-chloro-6-(4-chloro-3-fluoro-2-vinylphenyl)picolinate]	95 to 100

same assay, conditions: Amaranthus retroflexus, post-emergence, 336 h, AMARE: redroot pigweed (Amaranthus retroflexus), application rate 140 (kg ai/ha; footnote: g ai/ha), read-out: Visual Growth Reduction (%) 14 Days After Application AMARE

SMILES	pest or weed control at 140 g/ha [%]
C=Cc1c(-c2cc(N)c(Cl)c(C(=O)OC)n2)ccc(Cl)c1F [Compound 79, methyl 4-amino-3-chloro-6-(4-chloro-3-fluoro-2-vinylphenyl)picolinate]	95 to 100

same assay, conditions: Brassica napus, post-emergence, 336 h, BRSSS: oilseed rape, canola (Brassica napus), application rate 70 (kg ai/ha; footnote: g ai/ha), read-out: Visual Growth Reduction (%) 14 Days After Application BRSSS

SMILES	pest or weed control at 70 g/ha [%]
C=Cc1c(-c2cc(N)c(Cl)c(C(=O)OC)n2)ccc(Cl)c1F [Compound 79, methyl 4-amino-3-chloro-6-(4-chloro-3-fluoro-2-vinylphenyl)picolinate]	95 to 100

same assay, conditions: Brassica napus, post-emergence, 336 h, BRSSS: oilseed rape, canola (Brassica napus), application rate 140 (kg ai/ha; footnote: g ai/ha), read-out: Visual Growth Reduction (%) 14 Days After Application BRSSS

SMILES	pest or weed control at 140 g/ha [%]
C=Cc1c(-c2cc(N)c(Cl)c(C(=O)OC)n2)ccc(Cl)c1F [Compound 79, methyl 4-amino-3-chloro-6-(4-chloro-3-fluoro-2-vinylphenyl)picolinate]	95 to 100

same assay, conditions: Chenopodium album, post-emergence, 336 h, CHEAL: lambsquarters (Chenopodium album), application rate 70 (kg ai/ha; footnote: g ai/ha), read-out: Visual Growth Reduction (%) 14 Days After Application CHEAL

SMILES	pest or weed control at 70 g/ha [%]
C=Cc1c(-c2cc(N)c(Cl)c(C(=O)OC)n2)ccc(Cl)c1F [Compound 79, methyl 4-amino-3-chloro-6-(4-chloro-3-fluoro-2-vinylphenyl)picolinate]	95 to 100

same assay, conditions: Chenopodium album, post-emergence, 336 h, CHEAL: lambsquarters (Chenopodium album), application rate 140 (kg ai/ha; footnote: g ai/ha), read-out: Visual Growth Reduction (%) 14 Days After Application CHEAL

SMILES	pest or weed control at 140 g/ha [%]
C=Cc1c(-c2cc(N)c(Cl)c(C(=O)OC)n2)ccc(Cl)c1F [Compound 79, methyl 4-amino-3-chloro-6-(4-chloro-3-fluoro-2-vinylphenyl)picolinate]	95 to 100

same assay, conditions: Euphorbia heterophylla, post-emergence, 336 h, EPHHL: wild poinsettia (Euphorbia heterophylla), application rate 70 (kg ai/ha; footnote: g ai/ha), read-out: Visual Growth Reduction (%) 14 Days After Application EPHHL

SMILES	pest or weed control at 70 g/ha [%]
C=Cc1c(-c2cc(N)c(Cl)c(C(=O)OC)n2)ccc(Cl)c1F [Compound 79, methyl 4-amino-3-chloro-6-(4-chloro-3-fluoro-2-vinylphenyl)picolinate]	0 to 29

same assay, conditions: Euphorbia heterophylla, post-emergence, 336 h, EPHHL: wild poinsettia (Euphorbia heterophylla), application rate 140 (kg ai/ha; footnote: g ai/ha), read-out: Visual Growth Reduction (%) 14 Days After Application EPHHL

SMILES	pest or weed control at 140 g/ha [%]
C=Cc1c(-c2cc(N)c(Cl)c(C(=O)OC)n2)ccc(Cl)c1F [Compound 79, methyl 4-amino-3-chloro-6-(4-chloro-3-fluoro-2-vinylphenyl)picolinate]	0 to 29

same assay, conditions: Helianthus annuus, post-emergence, 336 h, HELAN: sunflower (Helianthus annuus), application rate 70 (kg ai/ha; footnote: g ai/ha), read-out: Visual Growth Reduction (%) 14 Days After Application HELAN

SMILES	pest or weed control at 70 g/ha [%]
C=Cc1c(-c2cc(N)c(Cl)c(C(=O)OC)n2)ccc(Cl)c1F [Compound 79, methyl 4-amino-3-chloro-6-(4-chloro-3-fluoro-2-vinylphenyl)picolinate]	85 to 94

same assay, conditions: Helianthus annuus, post-emergence, 336 h, HELAN: sunflower (Helianthus annuus), application rate 140 (kg ai/ha; footnote: g ai/ha), read-out: Visual Growth Reduction (%) 14 Days After Application HELAN

SMILES	pest or weed control at 140 g/ha [%]
C=Cc1c(-c2cc(N)c(Cl)c(C(=O)OC)n2)ccc(Cl)c1F [Compound 79, methyl 4-amino-3-chloro-6-(4-chloro-3-fluoro-2-vinylphenyl)picolinate]	85 to 94

same assay, conditions: Viola tricolor, post-emergence, 336 h, VIOTR: wild pansy (Viola tricolor), application rate 70 (kg ai/ha; footnote: g ai/ha), read-out: Visual Growth Reduction (%) 14 Days After Application VIOTR

SMILES	pest or weed control at 70 g/ha [%]
C=Cc1c(-c2cc(N)c(Cl)c(C(=O)OC)n2)ccc(Cl)c1F [Compound 79, methyl 4-amino-3-chloro-6-(4-chloro-3-fluoro-2-vinylphenyl)picolinate]	0 to 29

same assay, conditions: Viola tricolor, post-emergence, 336 h, VIOTR: wild pansy (Viola tricolor), application rate 140 (kg ai/ha; footnote: g ai/ha), read-out: Visual Growth Reduction (%) 14 Days After Application VIOTR

SMILES	pest or weed control at 140 g/ha [%]
C=Cc1c(-c2cc(N)c(Cl)c(C(=O)OC)n2)ccc(Cl)c1F [Compound 79, methyl 4-amino-3-chloro-6-(4-chloro-3-fluoro-2-vinylphenyl)picolinate]	0 to 29

tested on: Key Grass and Sedge Weeds as well as Grass Crops; experiment: Post-Emergent Test II (Table 6); type: in vivo; settings: post-emergence, 336 h, CYPSS, 70 g ai/ha, 14 days after application, read-out: Visual Growth Reduction (%) 14 Days After Application CYPSS
In short: as §1

SMILES	pest or weed control at 70 g/ha [%]
C=Cc1c(-c2cc(N)c(Cl)c(C(=O)OC)n2)ccc(Cl)c1F [Compound 79, methyl 4-amino-3-chloro-6-(4-chloro-3-fluoro-2-vinylphenyl)picolinate]	95 to 100
